Source: patent US20250215039A1, “NUCLEOSIDES FOR TREATING CANCER” (PRIMEFOUR THERAPEUTICS, INC., priority 2022, published 2025)
Where two headings read alike, the source gives them in different places.

Tested on: cancer cell lines
Test: Cancer cell proliferation activity (CellTiterGlo, 72 h)
Type: cell-based
Conditions: 72 h, 72 h, read-out: IC50 cell proliferation
Summary of the method: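 Readout is CellTiterGlo luminescence after 72 h compound exposure (0.1% DMSO final), started one day post-seeding, at 37 °C.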

SMILES: CCC[C@]1(CO)O[C@@H](n2cnc3c(N)nc(F)nc32)[C@H](O)[C@@H]1O [compound 195, (2R,3S,4R,5R)-5-(6-amino-2-fluoro-9H-purin-9-yl)-2-(hydroxymethyl)-2-propyltetrahydrofuran-3,4-diol]
- IC50 (5637 (bladder)): 230 nM
- IC50 (CLS439 (bladder)): 400 nM
- IC50 (HS729 (muscle)): 150 nM
- IC50 (J82 (bladder)): 160 nM
- IC50 (JAR (placenta)): 100 nM
- IC50 (MT3 (breast)): 120 nM
- IC50 (PANCI (pancreas)): 2250 nM
- IC50 (PC3 (prostate)): 220 nM
- IC50 (RD (muscle)): 210 nM
- IC50 (T24 (bladder)): 300 nM
- IC50 (Homo sapiens, 22Rv1, 72 h, 22RV1 (prostate)): 540 nM
- IC50 (Homo sapiens, 786-0, 72 h, 786O (kidney)): 110 nM
- IC50 (Homo sapiens, A204, 72 h, A204 (muscle)): 140 nM
- IC50 (Homo sapiens, A549, 72 h, A549 (lung)): 60 nM
- IC50 (Homo sapiens, A673, 72 h, A673 (bone)): 700 nM
- IC50 (Homo sapiens, A2780, 72 h, A2780 (ovary)): 390 nM
- IC50 (Homo sapiens, A-375, 72 h, A375 (skin)): 110 nM
- IC50 (Homo sapiens, A-431, 72 h, A431 (skin)): 70 nM
- IC50 (Homo sapiens, ACHN, ACHN (kidney)): 90 nM
- IC50 (Homo sapiens, ASPC1, 72 h, ASPC1 (pancreas)): 130 nM
- IC50 (Homo sapiens, BT-20, 72 h, BT20 (breast)): 110 nM
- IC50 (Homo sapiens, BXPC-3, 72 h, BXPC3 (pancreas)): 80 nM
- IC50 (Homo sapiens, C-33-A, C33A (endometrial)): 380 nM
- IC50 (Homo sapiens, CAKI-1, 72 h, CAKI1 (kidney)): 20 nM
- IC50 (Homo sapiens, COLO 205, 72 h, COLO205 (colon)): 330 nM
- IC50 (Homo sapiens, COLO-678, 72 h, COLO678 (colon)): 100 nM
- IC50 (Homo sapiens, Ca-Ski, CASKI (endometrial)): 50 nM
- IC50 (Homo sapiens, Caco-2, 72 h, CACO2 (colon)): 280 nM
- IC50 (Homo sapiens, Calu-6, 72 h, CALU6 (lung)): 40 nM
- IC50 (Homo sapiens, DLD-1, 72 h, DLD1 (colon)): 510 nM
- IC50 (Homo sapiens, DU-145, 72 h, DU145 (prostate)): 30 nM
- IC50 (Homo sapiens, EFO-21, 72 h, EFO21 (ovary)): 150 nM
- IC50 (Homo sapiens, EJ-28, 72 h, EJ28 (bladder)): 140 nM
- IC50 (Homo sapiens, Granta-519, 72 h, GRANTA-519 (hematological)): 160 nM
- IC50 (Homo sapiens, HCT-15, 72 h, HCT15 (colon)): 290 nM
- IC50 (Homo sapiens, HCT-116, 72 h, HCT116 (colon)): 250 nM
- IC50 (Homo sapiens, HEK293, 72 h, HEK293 (kidney)): 200 nM
- IC50 (Homo sapiens, HL-60, 72 h, HL-60 (hematological)): 100 nM
- IC50 (Homo sapiens, HT-29, 72 h, HT29 (colon)): 260 nM
- IC50 (Homo sapiens, HT-1080, 72 h, HT1080 (connective tissue)): 270 nM
- IC50 (Homo sapiens, HeLa, HELA (endometrial)): 80 nM
- IC50 (Homo sapiens, HepG2, 72 h, HEPG2 (liver)): 170 nM
- IC50 (Homo sapiens, Hs-578T, HS578T (breast)): 60 nM
- IC50 (Homo sapiens, IGROV-1, 72 h, IGROV1 (ovary)): 80 nM
- IC50 (Homo sapiens, IMR-90, 72 h, IMR90 (lung)): 60 nM
- IC50 (Homo sapiens, JEG-3, 72 h, JEG3 (placenta)): 100 nM
- IC50 (Homo sapiens, JIMT-1, 72 h, JIMT1 (breast)): 30 nM
- IC50 (Homo sapiens, K562, 72 h, K-562 (hematological)): 530 nM
- IC50 (Homo sapiens, Kasumi 1, 72 h, KASUMI-1 (hematological)): 20 nM
- IC50 (Homo sapiens, L-363, 72 h, L-363 (hematological)): 90 nM
- IC50 (Homo sapiens, LoVo, LOVO (colon)): 30 nM
- IC50 (Homo sapiens, MCF7, 72 h, MCF7 (breast)): 390 nM
- IC50 (Homo sapiens, MDA-MB-231, 72 h, MDAMB231 (breast)): 240 nM
- IC50 (Homo sapiens, MDA-MB-435, 72 h, MDAMB435 (skin)): 320 nM
- IC50 (Homo sapiens, MDA-MB-436, 72 h, MDAMB436 (breast)): 80 nM
- IC50 (Homo sapiens, MDA-MB-468, 72 h, MDAMB468 (breast)): 70 nM
- IC50 (Homo sapiens, MG-63, 72 h, MG63 (bone)): 1730 nM
- IC50 (Homo sapiens, MHH-ES-1, 72 h, MHHES1 (bone)): 170 nM
- IC50 (Homo sapiens, MIA PaCa-2, 72 h, MIAPACA2 (pancreas)): 1750 nM
- IC50 (Homo sapiens, MINO, MINO (hematological)): 20 nM
- IC50 (Homo sapiens, MV4-11, 72 h, MV4-11 (hematological)): 20 nM
- IC50 (Homo sapiens, NCI-H23, 72 h, NCI-H23 (lung)): 220 nM
- IC50 (Homo sapiens, NCI-H82, 72 h, NCIH82 (lung)): 170 nM
- IC50 (Homo sapiens, NCI-H292, 72 h, NCIH292 (lung)): 150 nM
- IC50 (Homo sapiens, NCI-H460, 72 h, NCIH460 (lung)): 170 nM
- IC50 (Homo sapiens, OVCAR-3, 72 h, OVCAR3 (ovary)): 80 nM
- IC50 (Homo sapiens, OVCAR-4, 72 h, OVCAR4 (ovary)): 150 nM
- IC50 (Homo sapiens, PLC-PRF-5, 72 h, PLCPRF5 (liver)): 1040 nM
- IC50 (Homo sapiens, Panc1005, 72 h, PANC1005 (pancreas)): 180 nM
- IC50 (Homo sapiens, Ramos, RAMOS (hematological)): 140 nM
- IC50 (Homo sapiens, SAOS-2, 72 h, SAOS2 (bone)): 100 nM
- IC50 (Homo sapiens, SF-268, 72 h, SF268 (brain)): 300 nM
- IC50 (Homo sapiens, SF-295, 72 h, SF295 (brain)): 220 nM
- IC50 (Homo sapiens, SK-BR-3, 72 h, SKBR3 (breast)): 30 nM
- IC50 (Homo sapiens, SK-HEP1, 72 h, SKHEP1 (liver)): 60 nM
- IC50 (Homo sapiens, SK-LMS-1, 72 h, SKLMS1 (uterus)): 140 nM
- IC50 (Homo sapiens, SK-MEL-5, 72 h, SKMEL5 (skin; SKMELS [sic] in Table 9E)): 90 nM
- IC50 (Homo sapiens, SK-MEL-28, 72 h, SKMEL28 (skin)): 100 nM
- IC50 (Homo sapiens, SK-N-AS, SKNAS (brain)): 120 nM
- IC50 (Homo sapiens, SK-N-SH, SKNSH (brain)): 80 nM
- IC50 (Homo sapiens, SK-OV-3, 72 h, SKOV3 (ovary)): 90 nM
- IC50 (Homo sapiens, SNB-75, 72 h, SNB75 (brain)): 220 nM
- IC50 (Homo sapiens, SU-DHL10, 72 h, SU-DHL-10 (hematological)): 210 nM
- IC50 (Homo sapiens, SU-DHL-6, 72 h, SU-DHL-6 (hematological)): 60 nM
- IC50 (Homo sapiens, SW-620, 72 h, SW620 (colon)): 80 nM
- IC50 (Homo sapiens, TE-671, 72 h, TE671 (muscle)): 730 nM
- IC50 (Homo sapiens, THP-1, 72 h, THP-1 (hematological)): 200 nM
- IC50 (Homo sapiens, U2OS, U20S (bone; U2OS in Table 9E)): 70 nM
- IC50 (Homo sapiens, U-87 MG, U87MG (brain)): 150 nM
- IC50 (Homo sapiens, UMUC3, 72 h, UMUC3 (bladder)): 190 nM
- IC50 (Homo sapiens, UO-31, 72 h, UO31 (kidney)): 50 nM
- IC50 (Homo sapiens, WSU-NHL, WSU-NHL (hematological)): 40 nM
- IC50 (NCI-H358M, NCIH358M (lung)): 140 nM
- IC50 (PBMC, PBMC (hematological)): 20 nM
- IC50 (RD-ES, RDES (bone)): 40 nM
